This series in a line: in vitro. Particulars: human, hela cells, % viability.

`Nc1cccc(-c2nccnc2NCCc2ccccn2)c1` [CBK037512]: the viability at 28.5 h, 10 µM was determined as 102%.

As to `CCCC/C=C/c1nccnc1N[C@@H](CO)C(C)C` [CBK037514], the viability at 28.5 h, 10 µM came to 101%.

Regarding `COCCNC(=O)c1cnc(-c2ccccc2)c(-c2cccnc2)c1` [CBK037515], the viability at 28.5 h, 10 µM amounted to 106%.

As to `O=C(Nc1ccc(O)cc1)c1cnc(-c2ccc(Cl)cc2)c(-c2cccnc2)c1` [CBK037516], the viability at 28.5 h, 10 µM came out at 94.7%.

For `CC(=O)N1CCN(C(=O)c2cnc(-c3ccc(Cl)cc3)c(-c3ccco3)c2)CC1` [CBK037518], the viability at 28.5 h, 10 µM came to 98.1%.

`CC(C)[C@@H](CO)NC(=O)c1cnc(-c2cccc(C(F)(F)F)c2)c(-c2cccnc2)c1` [CBK037520]: the viability at 28.5 h, 10 µM stood at 112%.

On to `c1ccc(CNc2nccn3ccnc23)nc1` [CBK037526], for which the viability at 28.5 h, 10 µM was 104%.

As for `Cc1cccc(CNc2nccnc2-c2cccc(Cl)c2)c1` [CBK037527], the viability at 28.5 h, 10 µM amounted to 109%.

Regarding `O=C(Nc1ccc2c(c1)OCCO2)c1cnc(-c2ccc(Cl)cc2)c(-c2cccnc2)c1` [CBK037528], the viability at 28.5 h, 10 µM turned out to be 110%.

`O=C(NCC(c1ccccc1)N1CCOCC1)c1cnc(-c2ccc(F)cc2)c(-c2ccco2)c1` (centres unmarked) [CBK037531]: the viability at 28.5 h, 10 µM turned out to be 95.7%.

Turning to `COc1cc(-c2cn3ccnc3c(NCC3CC3)n2)ccc1O` [CBK037538], the viability at 28.5 h, 10 µM was determined as 106%.

Take `Fc1ccccc1-c1nccnc1NCc1ccncc1` [CBK037540]: the viability at 28.5 h, 10 µM was 101%.

For `CC(C)[C@H](CO)Nc1nccnc1-c1cccc(O)c1` [CBK037542], the viability at 28.5 h, 10 µM was determined as 96.1%.

Regarding `COc1cccc(CNc2nccnc2-c2ccsc2)c1OC` [CBK037543], the viability at 28.5 h, 10 µM is 107%.

For the compound `O=C(NCCCN1CCCC1=O)c1cnc(-c2ccc(Cl)cc2)c(-c2ccncc2)c1` [CBK037545], the viability at 28.5 h, 10 µM was found to be 74.8%.

With `O=C(NCCS(=O)(=O)c1ccccc1)c1cnc(-c2ccc(Cl)cc2)c(-c2ccco2)c1` [CBK037546], the viability at 28.5 h, 10 µM was determined as 96.4%.

For `O=C(NCc1ccc2c(c1)OCO2)c1cnc(-c2ccc(Cl)cc2)c(-c2ccco2)c1` [CBK037547], the viability at 28.5 h, 10 µM worked out at 98.3%.

With `O=C(NCc1nc2ccccc2[nH]1)c1cnc(-c2ccc(Cl)cc2)c(-c2ccco2)c1` [CBK037555], the viability at 28.5 h, 10 µM came to 106%.

Consider `CC(NC(=O)c1cnc(-c2cccc(C(F)(F)F)c2)c(-c2ccncc2)c1)c1ccc(F)cc1` (centres unmarked) [CBK037556], for which the viability at 28.5 h, 10 µM was 99.7%.

On to `CC(=O)c1ccc(-c2nc(NC(=O)c3cccs3)cnc2-c2ccc(F)cc2)s1` [CBK037558], for which the viability at 28.5 h, 10 µM was found to be 81.8%.

With `NC1CCC(NC(=O)c2cnc(-c3ccc(Cl)cc3)c(-c3ccco3)c2)CC1` (centres unmarked) [CBK037563], the viability at 28.5 h, 10 µM turned out to be 105%.

`Cc1cccc(-c2ncc(NC(=O)Cc3ccc(-c4ccccc4)cc3)nc2-c2ccc(N(C)C)cc2)c1` [CBK037567]: the viability at 28.5 h, 10 µM came out at 98.1%.

Take `COc1cc(NC(=O)c2cnc(-c3ccc(Cl)cc3)c(-c3ccco3)c2)cc(C(F)(F)F)c1` [CBK037570]: the viability at 28.5 h, 10 µM was found to be 91.4%.

`COc1ccc(-c2cc(C(=O)NCc3ccc4c(c3)OCO4)cnc2-c2ccccc2)cn1` [CBK037571]: the viability at 28.5 h, 10 µM worked out at 97.9%.

`Nc1cccc(-c2nc(NC(=O)c3ccncc3)cnc2-c2ccc(F)c(Cl)c2)c1` [CBK037573]: the viability at 28.5 h, 10 µM was 114%.

For `COc1ccc(-c2cc(C(=O)N3CCN(C(C)=O)CC3)cnc2-c2ccc(Cl)cc2)cc1` [CBK037577], the viability at 28.5 h, 10 µM was found to be 102%.

Turning to `COc1ccc(-c2cc(C(=O)NCc3nc4ccccc4[nH]3)cnc2-c2ccccc2)cn1` [CBK037579], the viability at 28.5 h, 10 µM is 99.6%.

With `Nc1ccc(CCNC(=O)c2cnc(-c3cccc(C(F)(F)F)c3)c(-c3ccncc3)c2)cc1` [CBK037580], the viability at 28.5 h, 10 µM amounted to 90.8%.

For the compound `Cc1cccc(-c2ncc(NC(=O)Cc3cccc(Oc4ccccc4)c3)nc2-c2ccc(N)cc2)c1` [CBK037583], the viability at 28.5 h, 10 µM came out at 97.2%.

As usually defined, the viability is a read-out of living cells in per cent, often relative to untreated cells.

Values taken from PMC12040169 (PLOS Biology, 2025).
